Laboratory results reported in patent US20140357512A1, “HISTONE DEACETYLASE (HDAC) BIOMARKERS IN MULTIPLE MYELOMA” (priority 2013, published 2014).

Test system: human myeloma cell line MM.1S
Experiment: SILAC acetylated-lysine peptide profiling, HDAC inhibitor vs DMSO (light/heavy ratio)
Type: cell-based
Excerpt: An embodiment of the invention comprises utilizing the SILAC method in order to quantitate changes in protein expression between two or more populations of cells. The SILAC method is a technique based on mass spectrometry that detects differences in protein abundance among samples using non-radioactive isotopic labeling. The SILAC method is known in the art, and described in detail in Ong et al., “Stable Isotope Labeling by Amino Acids in Cell Culture, SILAC, as a Simple and Accurate Approach to Expression Proteomics”, Molecular & Cellular Proteomics, vol. 1, pp. 376-386 (2002), which is incorporated herein by reference in its entirety.
Briefly, the SILAC method involves growing two populations of cells in cell culture. The first population of cells is grown in growth media containing normal amino acids (“normal media”). The second population of cells is grown in media lacking a standard essential amino acid (such as lysine), but is then supplemented with a non-radioactive, isotopically labeled form of that essential amino acid (such as lysine labeled with ^13C atoms, rather than normal ^12C atoms), which is called “heavy media”. When the two populations of cells are each growing in the medium, they incorporate the amino acids into all of their proteins. The growth of cells maintained in the heavy media is no different from that in normal media. All peptides containing the heavy amino acids are heavier than their normal counterparts. The cells from each of the two populations of cells are lysed. The lysates from each of the two cell populations are then combined. The combined cell lysates are then analyzed by mass spectrometry. Pairs of chemically identical peptides of different stable isotope composition can be differentiated in a mass spectrometer due to their difference in mass. The ratio of peak intensities in the mass spectrum for such peptide pairs reflects the abundance ratio for the two proteins.
This example describes SILAC studies that were performed to compare the effects of three different HDAC inhibitors (Compound A, Compound B, and tubastatin A) to a control on a human multiple myeloma cell line. The HDAC inhibitors were also compared amongst themselves to determine differences in their effects.
A human myeloma cell line MM.1S was grown using either ^12C (light) or ^13C (heavy) lysine containing culture medium. The “heavy” cells were treated with DMSO as the control, and the “light” cells were treated with a single HDAC inhibitor at 37° C. for 6 hours. The heavy and light cells were lysed, and the lysates were mixed in 1:1 ratio and digested with the protease trypsin. The acetylated lysine containing peptides (due to the action of the HDAC inhibitor) in the digested peptide pool were captured by a non-specific anti-acetylated lysine antibody cocktail (the antibodies identify both light and heavy acetylated peptides), and subjected to mass spectrometry analysis in order to identify thousands of individual peptides.
Thousands of peptides were identified in pairs (^12C and ^13C) due to their known mass differences. The amino acid sequence and quantitative ratio (Light/Heavy) of a given peptide in two differentially treated cell lysates were then determined and annotated with their possible protein (gene) sources.
As stated above, three HDAC inhibitors (Compound A, Compound B, and Tubastatin A) were used. Thus, the SILAC method was performed three times, with a different HDAC inhibitor compared to a control each time. Accordingly, there are three pairs of quantitative data in the table below, i.e., Compound A:DMSO, Compound B:DMSO, and Tubastatin A:DMSO. A cut-off of 1.30 fold of change (increase or decrease) was then used to determine “changed” or “+” in the table, and any peptides with a fold of change less than 1.3 fold were determined to be “unchanged” or “0” in the table. Those peptides that were not identified were marked as “NA” in the table. […]

With `O=C(CCCCCCNC(=O)c1cnc(N(c2ccccc2)c2ccccc2)nc1)NO` [Compound A, 2-(diphenylamino)-N-(7-(hydroxyamino)-7-oxoheptyl)pyrimidine-5-carboxamide] the “L/H ratio of acetylated peptide FIK(ac)IDGK” value (SEQ ID NO: 660, 40S ribosomal protein S4 X isoform [71], RPS4X) was 0.57 log 2, the “L/H ratio of acetylated peptide LAMVK(ac)AEPDVK” value (SEQ ID NO: 661, NADH dehydrogenase [ubiquinone] 1 alpha subcomplex subunit 5 [60], NDUFA5) was 0.58 log 2 and the “L/H ratio of acetylated peptide NEK(ac)LFYR” value (SEQ ID NO: 662, NADP-dependent malic enzyme mitochondrial [119], ME3) was 0.58 log 2. The “L/H ratio of acetylated peptide K(ac)FVCPECSK” value (SEQ ID NO: 663, Isoform 1 of Transcription factor Sp3 [680], SP3) was 0.58 log 2, the “L/H ratio of acetylated peptide DLSLDDFK(ac)GK” value (SEQ ID NO: 664, Thioredoxin-dependent peroxide reductase mitochondrial [91], PRDX3) was 0.58 log 2 and the “L/H ratio of acetylated peptide DLTDYLMK(ac)ILTER” value (SEQ ID NO: 665, Beta-actin-like protein 2 [192], ACTBL2) was 0.58 log 2. The “L/H ratio of acetylated peptide HGASPELQK(ac)QIR” value (SEQ ID NO: 666, Peroxisomal membrane protein 11B [43], PEX11B) was 0.58 log 2, the “L/H ratio of acetylated peptide LNQLK(ac)PGLQYK” value (SEQ ID NO: 667, Isoform 5 of Interleukin enhancer-binding factor 3 [413], ILF3) was 0.59 log 2 and the “L/H ratio of acetylated peptide ISK(ac)LYGDLK” value (SEQ ID NO: 668, cDNA FLJ61478 highly similar to Succinate dehydrogenase (ubiquinone) flavoprotein subunit mitochondrial [541], SDHA) was 0.59 log 2. For the same molecule, the “L/H ratio of acetylated peptide LTSDDVK(ac)EQIYK” value (SEQ ID NO: 669, 40S ribosomal protein S13 [34], RPS13) was 0.60 log 2, the “L/H ratio of acetylated peptide SCNCLLLK(ac)[…]” value (SEQ ID NO: 670, Isoform alpha-enolase of Alpha-enolase [343], ENO1) was 0.60 log 2 and the “L/H ratio of acetylated peptide […](ac)FLIK” value (SEQ ID NO: 671, Methyltransferase-like protein 7A [105], METTL7A) was 0.60 log 2. For the same molecule, the “L/H ratio of acetylated peptide […](ac)QLK” value (SEQ ID NO: 672, Annexin A6 [442], ANXA6) was 0.60 log 2, the “L/H ratio of acetylated peptide EVK(ac)LLLLGAGESGK” value (SEQ ID NO: 673, Guanine nucleotide-binding protein G(k) subunit alpha [35], GNAI3) was 0.60 log 2 and the “L/H ratio of acetylated peptide […](ac)LR” value (SEQ ID NO: 674, Isoform 1 of Vesicle-associated membrane protein-associated protein A [125], VAPA) was 0.60 log 2. For the same molecule, the “L/H ratio of acetylated peptide YNWSAK(ac)AK” value (SEQ ID NO: 675, 60S ribosomal protein L37 [52], RPL37) was 0.60 log 2, the “L/H ratio of acetylated peptide GNK(ac)PWISLPR” value (SEQ ID NO: 676, 40S ribosomal protein S4 X isoform [233], RPS4X) was 0.60 log 2 and the “L/H ratio of acetylated peptide […](ac)NK” value (SEQ ID NO: 677, Isoform Long of ES1 protein homolog mitochondrial [233], C21orf33) was 0.61 log 2. For the same molecule, the “L/H ratio of acetylated peptide LENDK(ac)SFR” value (SEQ ID NO: 678, Isoform 1 of Enoyl-CoA delta isomerase 1 mitochondrial [89], ECI1) was 0.61 log 2, the “L/H ratio of acetylated peptide LVAMK(ac)FLR” value (SEQ ID NO: 679, Isoform 1 of Nucleoside diphosphate kinase B [39], NME1, NME2, NME1-NME2) was 0.61 log 2 and the “L/H ratio of acetylated peptide KVPFGK(ac)TYCCDLK” value (SEQ ID NO: 680, Mitochondrial carrier homolog 2 [293], MTCH2) was 0.62 log 2. The “L/H ratio of acetylated peptide TK(ac)[…]” value (SEQ ID NO: 681, Isoform 1 of Structural maintenance of chromosomes protein 2 [1160], SMC2) was 0.62 log 2, the “L/H ratio of acetylated peptide LAQLEEAK(ac)[…]” value (SEQ ID NO: 682, ATP synthase subunit b mitochondrial [139], ATP5F1) was 0.63 log 2 and the “L/H ratio of acetylated peptide IPVPVQK(ac)NIDQQIK” value (SEQ ID NO: 683, Isoform 1 of Pre-mRNA-splicing factor 38B [227], PRPF38B) was 0.64 log 2. The “L/H ratio of acetylated peptide […](ac)K” value (SEQ ID NO: 684, Protein disulfide-isomerase [207], P4HB) was 0.64 log 2, the “L/H ratio of acetylated peptide VDIRPQLLK(ac)NALQR” value (SEQ ID NO: 685, Isoform 1 of Heterochromatin protein 1-binding protein 3 [302], HP1BP3) was 0.64 log 2 and the “L/H ratio of acetylated peptide NQK(ac)LTATTQK” value (SEQ ID NO: 686, Nucleoprotein TPR [748], TPR) was 0.64 log 2. The “L/H ratio of acetylated peptide YYK(ac)NIGLGFK” value (SEQ ID NO: 687, 40S ribosomal protein S11 [38], RPS11) was 0.65 log 2, the “L/H ratio of acetylated peptide SGK(ac)YDLDFK” value (SEQ ID NO: 688, Isoform alpha-enolase of Alpha-enolase [256], ENO1) was 0.65 log 2 and the “L/H ratio of acetylated peptide LYGDLK(ac)HLK” value (SEQ ID NO: 689, cDNA FLJ61478 highly similar to Succinate dehydrogenase (ubiquinone) flavoprotein subunit mitochondrial [547], SDHA) was 0.65 log 2. The “L/H ratio of acetylated peptide VENEAEK(ac)DLQCHAPVR” value (SEQ ID NO: 690, Isoform 1 of Bromodomain-containing protein 7 [103], BRD7) was 0.65 log 2, the “L/H ratio of acetylated peptide DSLYK(ac)[…]” value (SEQ ID NO: 691, Isoform 1 of Clathrin heavy chain 1 [1535], CLTC) was 0.65 log 2 and the “L/H ratio of acetylated peptide TISAK(ac)YAEER” value (SEQ ID NO: 692, Isoform 1 of Myosin-9 [1459], MYH9) was 0.65 log 2. For the same molecule, the “L/H ratio of acetylated peptide (ac)ASNK(ac)TTLQK” value (SEQ ID NO: 693, Chromobox protein homolog 3 [5], CBX3) was 0.66 log 2, the “L/H ratio of acetylated peptide GYLADPAK(ac)FPEAR” value (SEQ ID NO: 694, 39S ribosomal protein L15 mitochondrial [228], MRPL15) was 0.66 log 2 and the “L/H ratio of acetylated peptide SCEIK(ac)FLTFK” value (SEQ ID NO: 695, Isoform 2 of 39S ribosomal protein L39 mitochondrial [126], MRPL39) was 0.66 log 2.
